In US6355799B1, “Substituted benzene compounds, process for their preparation, and herbicidal and defoliant compositions containing them” (ISK Americas Incorporated, priority 1997, dated 2002):

Tests used:
Format in all cases: in vivo
[1] = tested on: redroot pigweed (Amaranthus retroflexus, AMARE); assay: Pre-emerge test, greenhouse herbicide activity screening; conditions: rating scale 0-100, 14 days after application
Outline: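 Herbicidal damage is scored 0 (none) to 100 (complete plant death) two weeks after a simulated field spray. Rates span 15–1000 g ai/ha, delivered in acetone at 187 l/ha. For post-emergence treatments, plants have 2–3 leaves and the spray carries 0.25% v/v non-ionic surfactant.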

[2] = tested on: barnyardgrass (Echinochloa crus-galli, ECHCG); assay: as above; conditions: rating scale 0-100, 14 days after application
Outline: (§1)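 Rating: 0–100 visual injury, 14 DAA. Application: acetone, 187 l/ha, 15–1000 g ai/ha, flat-fan track sprayer with nozzle 40–45 cm above soil or canopy. Post-emerge runs used 0.25% v/v surfactant on 2–3 leaf plants.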

[3] = tested on: common ragweed (Ambrosia artemisizfolia L., AMBEL); assay: as above; conditions: rating scale 0-100, 14 days after application
Outline: as §1

[4] = tested on: green foxtail (Setaria viridis, SETVI); assay: as above; conditions: rating scale 0-100, 14 days after application
Outline: as §1

[5] = tested on: ivyleaf morningglory (Ipomoea hederacea, IPOHE); assay: as above; conditions: rating scale 0-100, 14 days after application
Outline: as §1

[6] = tested on: johnsongrass (Sorghum halepense, SORHA); assay: as above; conditions: rating scale 0-100, 14 days after application
Outline: as §1

[7] = tested on: lambsquarters (Chenopodium album, CHEAL); assay: as above; conditions: rating scale 0-100, 14 days after application
Outline: as §1

[8] = tested on: large crabgrass (Digitaria sanguinalis, DIGSA); assay: as above; conditions: rating scale 0-100, 14 days after application
Outline: as §1

[9] = tested on: sicklepod (Cassia obtusifolia, CASOB); assay: as above; conditions: rating scale 0-100, 14 days after application
Outline: as §1

[10] = tested on: velvetleaf (Abutilon theophrasti, ABUTH); assay: as above; conditions: rating scale 0-100, 14 days after application
Outline: as §1

[11] = tested on: field corn (Zea mays L., var. Dekalb 535, CORN); assay: Pre-emerge test, crop safety; conditions: rating scale 0-100, 14 days after application
Outline: (§2)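 Visual ratings on a 0-100 scale (0 no damage, 100 all plants dead) were taken at 14 days after treatment. Rates of 15-1000 g ai/ha in acetone, 187 l/ha, were sprayed onto soil one day after planting (pre-emerge) or onto 2-3 leaf plants with 0.25% v/v surfactant (post-emerge).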

[12] = tested on: upland rice (Oryza sp., var. Tebonnet, RICE); assay: Pre-emerge test, crop safety; conditions: rating scale 0-100, 14 days after application
Outline: as §2

[13] = tested on: barnyardgrass (Echinochloa crus-galli, ECHCG); assay: Post-emerge test, greenhouse herbicide activity screening; conditions: rating scale 0-100 (0 no damage, 100 complete death), 14 days after application
Outline: (§3)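 Each test used a mechanized track sprayer delivering 187 l/ha of acetone solution at 15–1000 g ai/ha. Post-emerge foliage at 2–3 leaves was treated with added 0.25% v/v non-ionic surfactant and bottom-watered only. Injury was assessed on day 14, where 100 means total kill.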

[14] = tested on: common ragweed (Ambrosia artemisizfolia L., AMBEL); assay: as above; conditions: rating scale 0-100 (0 no damage, 100 complete death), 14 days after application
Outline: as §3

[15] = tested on: green foxtail (Setaria viridis, SETVI); assay: as above; conditions: rating scale 0-100 (0 no damage, 100 complete death), 14 days after application
Outline: as §3

[16] = tested on: ivyleaf morningglory (Ipomoea hederacea, IPOHE); assay: as above; conditions: rating scale 0-100 (0 no damage, 100 complete death), 14 days after application
Outline: as §3

[17] = tested on: lambsquarters (Chenopodium album, CHEAL); assay: as above; conditions: rating scale 0-100 (0 no damage, 100 complete death), 14 days after application
Outline: as §3

[18] = tested on: large crabgrass (Digitaria sanguinalis, DIGSA); assay: as above; conditions: rating scale 0-100 (0 no damage, 100 complete death), 14 days after application
Outline: as §3

[19] = tested on: redroot pigweed (Amaranthus retroflexus, AMARE); assay: as above; conditions: rating scale 0-100 (0 no damage, 100 complete death), 14 days after application
Outline: as §3

[20] = tested on: sicklepod (Cassia obtusifolia, CASOB); assay: as above; conditions: rating scale 0-100 (0 no damage, 100 complete death), 14 days after application
Outline: as §3

[21] = tested on: velvetleaf (Abutilon theophrasti, ABUTH); assay: as above; conditions: rating scale 0-100 (0 no damage, 100 complete death), 14 days after application
Outline: as §3

[22] = tested on: field corn (Zea mays L., var. Dekalb 535, CORN); assay: Post-emerge test, crop safety; conditions: rating scale 0-100 (0 no damage, 100 complete death), 14 days after application
Outline: (§4)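 Plants grown in 10 cm pots of sandy loam mix received acetone-dissolved compounds through a moving flat-fan nozzle. Doses ranged from 15 to 1000 g ai/ha. Pre-emerge pots were seeded one day earlier, post-emerge pots 8–21 days earlier. Fourteen days on, each pot was graded 0–100 for damage.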

[23] = tested on: upland rice (Oryza sp., var. Tebonnet, RICE); assay: Post-emerge test, crop safety; conditions: rating scale 0-100 (0 no damage, 100 complete death), 14 days after application
Outline: as §4

CCCCOC(=O)C(Cl)Cc1c(OC)c(Cl)cc(F)c1-n1c(=O)cc(C(F)(F)F)n(C)c1=O (single isomer, unassigned) [14-8]
10: Post-emerge Herbicidal Activity, phytotoxicity rating AMBEL ([14]; Rate 63 g ai/ha) | Post-emerge Herbicidal Activity, phytotoxicity rating SETVI ([15]; Rate 63 g ai/ha)
90: Post-emerge Herbicidal Activity, phytotoxicity rating AMARE ([19]; Rate 63 g ai/ha)
95: Pre-emerge herbicidal activity, phytotoxicity rating CHEAL ([7]; 250 g ai/ha) | Post-emerge Herbicidal Activity, phytotoxicity rating ECHCG ([13]; Rate 63 g ai/ha) | Post-emerge Herbicidal Activity, phytotoxicity rating IPOHE ([16]; Rate 250 g ai/ha)
60: Post-emerge Herbicidal Activity, phytotoxicity rating ABUTH ([21]; Rate 63 g ai/ha)
100: Pre-emerge herbicidal activity, phytotoxicity rating AMARE ([1]; 63 g ai/ha) | Pre-emerge herbicidal activity, phytotoxicity rating DIGSA ([8]; 250 g ai/ha) | Post-emerge Herbicidal Activity, phytotoxicity rating AMARE ([19]; Rate 250 g ai/ha) | Post-emerge Herbicidal Activity, phytotoxicity rating ABUTH ([21]; Rate 250 g ai/ha)
70: Pre-emerge herbicidal activity, phytotoxicity rating CHEAL ([7]; 63 g ai/ha) | Post-emerge Herbicidal Activity, phytotoxicity rating CHEAL ([17]; Rate 63 g ai/ha)
5: Post-emerge phytotoxicity rating RICE (crop damage) ([23]; Rate 63 g ai/ha)
80: Post-emerge Herbicidal Activity, phytotoxicity rating CASOB ([20]; Rate 250 g ai/ha) | Post-emerge phytotoxicity rating CORN (crop damage) ([22]; Rate 250 g ai/ha)
30: Post-emerge Herbicidal Activity, phytotoxicity rating IPOHE ([16]; Rate 63 g ai/ha) | Post-emerge Herbicidal Activity, phytotoxicity rating CASOB ([20]; Rate 63 g ai/ha) | Post-emerge phytotoxicity rating RICE (crop damage) ([23]; Rate 250 g ai/ha)
0: Pre-emerge herbicidal activity, phytotoxicity rating ECHCG ([2]; 63 g ai/ha) | Pre-emerge herbicidal activity, phytotoxicity rating AMBEL ([3]; 63 g ai/ha) | Pre-emerge herbicidal activity, phytotoxicity rating SETVI ([4]; 63 g ai/ha) | Pre-emerge herbicidal activity, phytotoxicity rating SETVI ([4]; 250 g ai/ha) | Pre-emerge herbicidal activity, phytotoxicity rating IPOHE ([5]; 63 g ai/ha) | Pre-emerge herbicidal activity, phytotoxicity rating IPOHE ([5]; 250 g ai/ha) | Pre-emerge herbicidal activity, phytotoxicity rating SORHA ([6]; 63 g ai/ha) | Pre-emerge herbicidal activity, phytotoxicity rating SORHA ([6]; 250 g ai/ha) | Pre-emerge herbicidal activity, phytotoxicity rating CASOB ([9]; 63 g ai/ha) | Pre-emerge herbicidal activity, phytotoxicity rating CASOB ([9]; 250 g ai/ha) | Pre-emerge herbicidal activity, phytotoxicity rating ABUTH ([10]; 63 g ai/ha) | Pre-emerge phytotoxicity rating, crop damage CORN ([11]; 63 g ai/ha) | Pre-emerge phytotoxicity rating, crop damage CORN ([11]; 250 g ai/ha) | Pre-emerge phytotoxicity rating, crop damage RICE ([12]; 63 g ai/ha) | Pre-emerge phytotoxicity rating, crop damage RICE ([12]; 250 g ai/ha)
50: Post-emerge Herbicidal Activity, phytotoxicity rating AMBEL ([14]; Rate 250 g ai/ha)
99: Pre-emerge herbicidal activity, phytotoxicity rating AMARE ([1]; 250 g ai/ha) | Post-emerge Herbicidal Activity, phytotoxicity rating ECHCG ([13]; Rate 250 g ai/ha) | Post-emerge Herbicidal Activity, phytotoxicity rating CHEAL ([17]; Rate 250 g ai/ha)
40: Pre-emerge herbicidal activity, phytotoxicity rating AMBEL ([3]; 250 g ai/ha) | Pre-emerge herbicidal activity, phytotoxicity rating DIGSA ([8]; 63 g ai/ha) | Pre-emerge herbicidal activity, phytotoxicity rating ABUTH ([10]; 250 g ai/ha) | Post-emerge Herbicidal Activity, phytotoxicity rating SETVI ([15]; Rate 250 g ai/ha) | Post-emerge Herbicidal Activity, phytotoxicity rating DIGSA ([18]; Rate 63 g ai/ha) | Post-emerge phytotoxicity rating CORN (crop damage) ([22]; Rate 63 g ai/ha)
20: Pre-emerge herbicidal activity, phytotoxicity rating ECHCG ([2]; 250 g ai/ha)
85: Post-emerge Herbicidal Activity, phytotoxicity rating DIGSA ([18]; Rate 250 g ai/ha)
